Assay [1] has as its system Magnaporthe grisea (Pyricularia oryzae—PYRIOR). Put plainly: microbe, parasite or virus in culture. In kind it is cell-based. As to conditions: for inhibition at 25 ppm: Pyricularia oryzae, read-out: PYRIOR in vitro Growth Inhibition.
Assay [2] deals with Rhizoctonia solani (RHIZSO). As to the kind of experiment: microbe, parasite or virus in culture. In kind it is cell-based. As to conditions: for inhibition at 25 ppm: Rhizoctonia solani, read-out: RHIZSO in vitro Growth Inhibition.
Assay [3] relates to Mycosphaerella graminicola (Septoria tritici—SEPTTR). Put plainly: In vitro fungal growth inhibition, Mycosphaerella graminicola (SEPTTR). The assay is classed as cell-based. As to conditions: 25 ppm in growth medium; for inhibition at 25 ppm: Zymoseptoria tritici, read-out: SEPTTR in vitro Growth Inhibition.
For assay [4], the system named is Stagonospora nodorum (Leptosphaeria nodorum—LEPTNO). Put plainly: In vitro fungal growth inhibition, Stagonospora nodorum (LEPTNO). In kind it is cell-based. Particulars: 25 ppm in growth medium; for inhibition at 25 ppm: Leptosphaeria, read-out: LEPTNO in vitro Growth Inhibition.
Another assay relates to Ustilago maydis (USTIMA). As to the kind of experiment: microbe, parasite or virus in culture. In kind it is cell-based. As to conditions: for inhibition at 25 ppm: Mycosarcoma maydis, read-out: USTIMA in vitro Growth Inhibition.
The test system of assay [5] is Phytophthora infestans (PHYTIN). As to the kind of experiment: microbe, parasite or virus in culture. The assay is classed as cell-based. As to conditions: for inhibition at 25 ppm: Phytophthora infestans, read-out: PHYTIN in vitro Growth Inhibition.
For assay [6], the system named is Phytophthora infestans—PHYTIN. As to the kind of experiment: whole plant or invertebrate. The assay is classed as in vivo. As to conditions: for pest or weed control at 100 ppm: Phytophthora, in Solanum lycopersicum, 24 h, read-out: PHYTIN in vivo 1 Day Protectant.
The test system of assay [7] is Puccinia recondita—PUCCRT. As to the kind of experiment: Brown Rust of Wheat, in vivo whole plant, 24 Hour Protectant. Particulars: 100 ppm spray, 24 hour protectant, wheat, control of fungal infection vs untreated plants; for pest or weed control at 100 ppm: Puccinia, read-out: PUCCRT in vivo 1 Day Protectant.
Another assay deals with Erysiphe graminis—ERYSGT. Put plainly: Powdery Mildew of Wheat, in vivo whole plant, 24 Hour Protectant. As to conditions: 100 ppm spray, 24 hour protectant, wheat, control of fungal infection vs untreated plants; for pest or weed control at 100 ppm: Erysiphe, read-out: ERYSGT in vivo 1 Day Protectant.
The test system of a further assay is Septoria tritici—SEPTTR. As to the kind of experiment: Leaf Blotch of Wheat, in vivo whole plant, 24 Hour Protectant. As to conditions: 100 ppm spray, 24 hour protectant, wheat, control of fungal infection vs untreated plants; for pest or weed control at 100 ppm: Zymoseptoria tritici, 24 h, read-out: SEPTTR in vivo 1 Day Protectant.
In assay [8] the test system is Leptosphaeria nodorum—LEPTNO. As to the kind of experiment: Glume Blotch of Wheat, in vivo whole plant, 24 Hour Protectant. Particulars: 100 ppm spray, 24 hour protectant, wheat, control of fungal infection vs untreated plants; for pest or weed control at 100 ppm: Leptosphaeria, read-out: LEPTNO in vivo 1 Day Protectant.

For orientation: inhibition means the share of the control response that was lost under treatment.

`COc1ccnc(C(=O)NC2C[C@H](C)C[C@H](c3ccccn3)C2)c1O` (some centres unmarked) [Compound 259]: the inhibition at 25 ppm (in assay [1]; in assay [2]; in [3]; in assay [4]; with Ustilago maydis (USTIMA); in assay [5]) was under 80% in each case. Also, the pest or weed control at 100 ppm in [6] was 25 to 74%; in assay [7], 25 to 74%; in the assay with Erysiphe graminis—ERYSGT, under 25%; in the assay on Septoria tritici—SEPTTR, 25 to 74%; in [8], 25 to 74%.
With `COc1ccnc(C(=O)NC2CC(C)(C)CC(C)(C(=O)OCCC(C)(C)C)C2)c1O` (centres unmarked) [Compound 261], the inhibition at 25 ppm in assay [1] is under 80%; in assay [2], under 80%; in assay [3] it was over 80%; in [4], over 80%; with Ustilago maydis (USTIMA) it was under 80%; in assay [5], over 80%. Moreover, the pest or weed control at 100 ppm in assay [6] is 25 to 74%; in assay [7], 25 to 74%; in the assay on Erysiphe graminis—ERYSGT it was under 25%; with Septoria tritici—SEPTTR it was 25 to 74%; in assay [8], 25 to 74%.
Turning to `COc1ccnc(C(=O)N[C@@H]2CC(C)(C)C[C@](C)(C(=O)N(C)CCc3ccccc3)C2)c1O` [Compound 263], the “PYRIOR in vitro Growth Inhibition” value in assay [1] (25 ppm in growth medium) is “− (less than 80% growth inhibition)”. Moreover, the “RHIZSO in vitro Growth Inhibition” value in assay [2] is given as “− (key: +: at least 80% growth inhibition; −: less than 80% growth inhibition)”. Further, the “SEPTTR in vitro Growth Inhibition” value in [3] is given as “− (less than 80% growth inhibition)”. The “LEPTNO in vitro Growth Inhibition” value in assay [4] is reported as “− (less than 80% growth inhibition)”. In the assay with Ustilago maydis (USTIMA), the “USTIMA in vitro Growth Inhibition” value is on record as “− (key: +: at least 80% growth inhibition; −: less than 80% growth inhibition)”. For the same compound, the “PHYTIN in vitro Growth Inhibition” value in [5] (25 ppm in growth medium) was “− (less than 80% growth inhibition)”. Moreover, in assay [6] (100 ppm spray, 24 hour protectant, tomato, control of fungal infection vs untreated plants), the “PHYTIN in vivo 1 Day Protectant” value was “− (<25% control of fungal infection)”. In addition, in assay [7], the “PUCCRT in vivo 1 Day Protectant” value is “− (<25% control of fungal infection)”. Besides, in the assay with Erysiphe graminis—ERYSGT, the “ERYSGT in vivo 1 Day Protectant” value is listed as “− (<25% control of fungal infection)”. For the same compound, in the assay on Septoria tritici—SEPTTR, the “SEPTTR in vivo 1 Day Protectant” value is “− (<25% control of fungal infection)”. The “LEPTNO in vivo 1 Day Protectant” value in [8] is reported as “+ (25-74% control of fungal infection)”.
As for `COc1ccnc(C(=O)N[C@H]2CC(C)(C)[C@H](O)C(C)(C)C2)c1O` [Compound 264, trans-4-HYDROXY-3,3,5,5-TETRAMETHYLPICOLINAMIDE], the inhibition at 25 ppm (in assay [1]; in assay [2]; in [3]; in [4]; in the assay on Ustilago maydis (USTIMA); in assay [5]) was under 80% each time. Further, the pest or weed control at 100 ppm is under 25% in assay [6]; 25 to 74% in [7]; under 25% in the assay with Erysiphe graminis—ERYSGT; 25 to 74% in the assay on Septoria tritici—SEPTTR; under 25% in assay [8].
As for `COc1ccnc(C(=O)NC2CC(C)(C)C(OC)C(C)(C)C2)c1O` (centres unmarked) [Compound 265], the inhibition at 25 ppm (in [1]; in assay [2]; in assay [3]; in [4]; with Ustilago maydis (USTIMA); in [5]) was under 80% throughout. Also, the pest or weed control at 100 ppm in assay [6] was under 25%; in assay [7], under 25%; with Erysiphe graminis—ERYSGT, 25 to 74%; in the assay with Septoria tritici—SEPTTR, 25 to 74%; in [8] it was 25 to 74%.
As to `COc1ccnc(C(=O)NC2CC(C)(C)C(=O)C(C)(C)C2)c1O` [Compound 266], the inhibition at 25 ppm (in assay [1]; in [2]; in assay [3]; in [4]; with Ustilago maydis (USTIMA); in assay [5]) was under 80% each time. The pest or weed control at 100 ppm in assay [6] is under 25%; in assay [7] it was under 25%; with Erysiphe graminis—ERYSGT it was under 25%; with Septoria tritici—SEPTTR, 25 to 74%; in assay [8], 25 to 74%.
`COc1ccnc(C(=O)NC2CC(C)(C)C(OC(=O)CC(C)C)C(C)(C)C2)c1O` (centres unmarked) [Compound 267]: the inhibition at 25 ppm in [1] was under 80%; in assay [2], under 80%; in assay [3] it was under 80%; in assay [4] it was over 80%; in the assay with Ustilago maydis (USTIMA), over 80%; in assay [5] it was over 80%. Further, the pest or weed control at 100 ppm in assay [6] was under 25%; in assay [7], 25 to 74%; in the assay with Erysiphe graminis—ERYSGT, under 25%; with Septoria tritici—SEPTTR, under 25%; in assay [8], 25 to 74%.
Consider `COc1ccnc(C(=O)NC2CC(C)(C)C(Oc3cc(C(F)(F)F)cc(C(F)(F)F)n3)C(C)(C)C2)c1O` (centres unmarked) [Compound 272], for which the inhibition at 25 ppm in assay [1] is under 80%; in assay [2] it was under 80%; in [3], over 80%; in assay [4] it was under 80%; with Ustilago maydis (USTIMA) it was under 80%; in [5], under 80%. The pest or weed control at 100 ppm in assay [6] is under 25%; in [7], under 25%; in the assay with Erysiphe graminis—ERYSGT, under 25%; in [8] it was 25 to 74%. Further, the “SEPTTR in vivo 1 Day Protectant” value in the assay with Septoria tritici—SEPTTR was “+ +”.
With `COc1ccnc(C(=O)NC2CCCC(Sc3ccc(C(F)(F)F)cn3)C2)c1O` (centres unmarked) [Compound 274], the inhibition at 25 ppm in [1] was over 80%; in [2], over 80%; in assay [3] it was over 80%; in assay [4], over 80%; in the assay with Ustilago maydis (USTIMA) it was under 80%; in [5], over 80%. Moreover, the pest or weed control at 100 ppm in [6] is under 25%; with Erysiphe graminis—ERYSGT it was under 25%; in the assay with Septoria tritici—SEPTTR, 25 to 74%. Also, in assay [7], the “PUCCRT in vivo 1 Day Protectant” value was “+ +”. In addition, the “LEPTNO in vivo 1 Day Protectant” value in [8] was “+ +”.
Consider `COc1ccnc(C(=O)NC2CCC(Sc3ccccc3)CC2)c1O` (centres unmarked) [Compound 275], for which the inhibition at 25 ppm in assay [1] is under 80%; in [2], over 80%; in assay [3], over 80%; in assay [4], over 80%; in the assay with Ustilago maydis (USTIMA), under 80%; in assay [5], under 80%. For the same compound, the pest or weed control at 100 ppm in assay [6] is under 25%; in [7] it was under 25%; in the assay on Erysiphe graminis—ERYSGT it was under 25%; in the assay on Septoria tritici—SEPTTR, 25 to 74%; in assay [8] it was 25 to 74%.
For the compound `COc1ccnc(C(=O)NC2CC(C)(C)CC(C)(C(=O)CCCc3ccccc3)C2)c1O` (centres unmarked) [Compound 276], the inhibition at 25 ppm was under 80% in [1]; under 80% in assay [2]; under 80% in assay [3]; over 80% in assay [4]; under 80% with Ustilago maydis (USTIMA); under 80% in assay [5]. For the same compound, the pest or weed control at 100 ppm is under 25% in assay [6], 25 to 74% in [7], under 25% with Erysiphe graminis—ERYSGT and 25 to 74% in the assay with Septoria tritici—SEPTTR. In assay [8], the “LEPTNO in vivo 1 Day Protectant” value is listed as “+ +”.
Turning to `COc1ccnc(C(=O)NC2CC(C)(C)CCCC2C)c1O` (centres unmarked) [Compound 277], the inhibition at 25 ppm in assay [1] was under 80%; in [2], under 80%; in assay [3] it was over 80%; in assay [4] it was over 80%; in the assay on Ustilago maydis (USTIMA) it was under 80%; in [5] it was under 80%. Moreover, the pest or weed control at 100 ppm is under 25% in assay [6], under 25% in assay [7], under 25% with Erysiphe graminis—ERYSGT and 25 to 74% in assay [8]. The “SEPTTR in vivo 1 Day Protectant” value with Septoria tritici—SEPTTR is “+ +”.
Consider `COc1ccnc(C(=O)NC2CC(C)(C)C=CC=C2C)c1O` (centres unmarked) [Compound 278], for which the inhibition at 25 ppm (in assay [1]; in [2]; in assay [3]; in [4]; in the assay on Ustilago maydis (USTIMA); in [5]) was under 80% each time. The pest or weed control at 100 ppm in assay [6] was under 25%; in assay [7], 25 to 74%; in the assay with Erysiphe graminis—ERYSGT, under 25%; in the assay with Septoria tritici—SEPTTR, 25 to 74%; in [8], 25 to 74%.

Values taken from patent publication US6706740B2, “Fungicidal heterocyclic aromatic amides and their compositions, methods of use and preparation” (Dow AgroSciences LLC, priority 1999, dated 2004).
